Read-outs that look alike come from different tables or passages of the source.
Legend:
[1] = Plasma pharmacokinetics (LC–MS/MS, non-compartmental analysis); format: in vivo, Japanese patients; conditions: for Cmax / Tmax / AUC(0-t) / AUC(0-inf): human, plasma, oral; for Cmax: read-out: Cmax, Median; for AUC(0-inf): read-out: AUCinf, Median
Experimental: The PK parameters were determined by non-compartmental analysis using Phoenix WinNonlin 6.2® (Pharsight, Mountain View, CA).

S6 phosphorylation (pS6) = assay: pS6 in normal skin samples (PD biomarker); format: in vivo, Japanese patients; conditions: 400 mg bid; 3/6 patients; baseline vs end of Cycle 1
[2] = Phase I dose escalation (3 + 3): DLTs, MTD, recommended dose; format: in vivo
Experimental: BEZ235 was administered orally as a single agent on a continuous qd or bid dosing schedule. […] Furthermore, in the previous study, a granule formulation (BEZ235 SDS sachet) was developed because of difficulties in swallowing the large size capsules of the investigational drug. The ingredients of this new formulation, which are dispensed as granules contained within a sachet, are essentially the same as the capsule. […] Decisions regarding dose escalation were based on the safety profile, particularly DLTs, observed in the first cycle of treatment for each patient.
Safety assessments consisted of monitoring and recording of all AEs, including laboratory abnormalities and vital signs. DLTs were defined as an AE or a laboratory abnormality assessed as related to the study drug and occurring within the first 28 days of treatment (Cycle 1), as defined in Supplemental Table S1.

advanced solid tumors = assay: Tumor response per RECIST v1.0; format: in vivo, Japanese patients
Experimental: Tumor lesions were assessed by the investigators according to the RECIST guidelines, v1.0. Patients underwent screening using computed tomography (CT) or magnetic resonance imaging (MRI) scans. Screening was performed within 28 days of the first dose. The post-baseline RECIST assessments were performed every two cycles and then at the end of treatment.

**Q.** What does the source list for `Cn1c(=O)n(-c2ccc(C(C)(C)C#N)cc2)c2c3cc(-c4cnc5ccccc5c4)ccc3ncc21` [BEZ235]?
**A.** Cmax ([1]; 1000 mg, Cycle 1 Day 1, 1000 mg qd, n = 6): 0.472 µg/mL; Tmax ([1]; 1000 mg, Cycle 1 Day 1, 1000 mg qd, n = 6, read-out: Tmax, Median): 5 h; AUC(0-t) ([1]; 1000 mg, Cycle 1 Day 8, 1000 mg qd, n = 3, read-out: AUC0 − 24, Median): 8.26 µg·h/mL; AUC(0-inf) ([1]; 1000 mg, Cycle 1 Day 8, 1000 mg qd, n = 3): 8.3 µg·h/mL; AUC(0-t) ([1]; 1000 mg, Cycle 1 Day 8, 1000 mg qd, n = 7, read-out: AUClast, Median): 9.35 µg·h/mL; Cmax ([1]; 1000 mg, Cycle 1 Day 8, 1000 mg qd, n = 7): 0.912 µg/mL; Tmax ([1]; 1000 mg, Cycle 1 Day 8, 1000 mg qd, n = 7, read-out: Tmax, Median): 6 h; AUC(0-t) ([1]; 1000 mg, Cycle 1 Day 28, 1000 mg qd, n = 2, read-out: AUC0 − 24, Median): 3.74 µg·h/mL; AUC(0-inf) ([1]; 1000 mg, Cycle 1 Day 28, 1000 mg qd, n = 2): 3.77 µg·h/mL; AUC(0-t) ([1]; 1000 mg, Cycle 1 Day 28, 1000 mg qd, n = 4, read-out: AUClast, Median): 4.8 µg·h/mL; Cmax ([1]; 1000 mg, Cycle 1 Day 28, 1000 mg qd, n = 4): 0.548 µg/mL; Tmax ([1]; 1000 mg, Cycle 1 Day 28, 1000 mg qd, n = 4, read-out: Tmax, Median): 4 h; AUC(0-inf) ([1]; 1200 mg, Cycle 1 Day 1, 1200 mg qd, n = 1): 2.29 µg·h/mL; AUC(0-t) ([1]; 1200 mg, Cycle 1 Day 1, 1200 mg qd, n = 3, read-out: AUC0 − 24, Median): 6.42 µg·h/mL; AUC(0-t) ([1]; 1200 mg, Cycle 1 Day 1, 1200 mg qd, n = 5, read-out: AUClast, Median): 6.42 µg·h/mL; Cmax ([1]; 1200 mg, Cycle 1 Day 1, 1200 mg qd, n = 5): 0.403 µg/mL; Tmax ([1]; 1200 mg, Cycle 1 Day 1, 1200 mg qd, n = 5, read-out: Tmax, Median): 6 h; AUC(0-inf) ([1]; 1200 mg, Cycle 1 Day 8, 1200 mg qd, n = 1): 14.4 µg·h/mL; AUC(0-t) ([1]; 1200 mg, Cycle 1 Day 8, 1200 mg qd, n = 4, read-out: AUC0 − 24, Median): 34.2 µg·h/mL; AUC(0-t) ([1]; 1200 mg, Cycle 1 Day 8, 1200 mg qd, n = 4, read-out: AUClast, Median): 33.5 µg·h/mL; Cmax ([1]; 1200 mg, Cycle 1 Day 8, 1200 mg qd, n = 4): 1.81 µg/mL; Tmax ([1]; 1200 mg, Cycle 1 Day 8, 1200 mg qd, n = 4, read-out: Tmax, Median): 4 h; AUC(0-t) ([1]; 1200 mg, Cycle 1 Day 28, 1200 mg qd, n = 1, read-out: AUC0 − 24, Median): 43.4 µg·h/mL; AUC(0-t) ([1]; 1200 mg, Cycle 1 Day 28, 1200 mg qd, n = 2, read-out: AUClast, Median): 37.1 µg·h/mL; Cmax ([1]; 1200 mg, Cycle 1 Day 28, 1200 mg qd, n = 2): 2.17 µg/mL; Tmax ([1]; 1200 mg, Cycle 1 Day 28, 1200 mg qd, n = 2, read-out: Tmax, Median): 5.9 h; AUC(0-inf) ([1]; 1400 mg, Cycle 1 Day 1, 1400 mg qd, n = 1): 1.29 µg·h/mL; AUC(0-t) ([1]; 1400 mg, Cycle 1 Day 1, 1400 mg qd, n = 2, read-out: AUC0 − 24, Median): 13.7 µg·h/mL; AUC(0-t) ([1]; 1400 mg, Cycle 1 Day 1, 1400 mg qd, n = 5, read-out: AUClast, Median): 10.2 µg·h/mL; Cmax ([1]; 1400 mg, Cycle 1 Day 1, 1400 mg qd, n = 5): 0.733 µg/mL; Tmax ([1]; 1400 mg, Cycle 1 Day 1, 1400 mg qd, n = 5, read-out: Tmax, Median): 8 h; AUC(0-t) ([1]; 1400 mg, Cycle 1 Day 8, 1400 mg qd, n = 3, read-out: AUC0 − 24, Median): 36.4 µg·h/mL; AUC(0-t) ([1]; 1400 mg, Cycle 1 Day 8, 1400 mg qd, n = 5, read-out: AUClast, Median): 35.9 µg·h/mL; Cmax ([1]; 1400 mg, Cycle 1 Day 8, 1400 mg qd, n = 5): 2.48 µg/mL; Tmax ([1]; 1400 mg, Cycle 1 Day 8, 1400 mg qd, n = 5, read-out: Tmax, Median): 4 h; AUC(0-inf) ([1]; 1400 mg, Cycle 1 Day 28, 1400 mg qd, n = 3): 30.7 µg·h/mL; AUC(0-t) ([1]; 1400 mg, Cycle 1 Day 28, 1400 mg qd, n = 4, read-out: AUC0 − 24, Median): 18.3 µg·h/mL; AUC(0-t) ([1]; 1400 mg, Cycle 1 Day 28, 1400 mg qd, n = 4, read-out: AUClast, Median): 18.3 µg·h/mL; Cmax ([1]; 1400 mg, Cycle 1 Day 28, 1400 mg qd, n = 4): 1.51 µg/mL; Tmax ([1]; 1400 mg, Cycle 1 Day 28, 1400 mg qd, n = 4, read-out: Tmax, Median): 4 h; Tmax ([1]; across all dose levels and dosing schedules, Day 1, Day 8, Day 28 of Cycle 1, read-out: Median Tmax): ~4 h; Tmax ([1]; all dose levels and dosing schedules, read-out: individual Tmax range): 1 to 24 h; PK exposures on Day 8 versus Day 1 ([1]; qd and bid regimens, Cycle 1): at least threefold higher; samples with reduction of pS6 in normal skin (S6 phosphorylation (pS6)): 50%; recommended dose (RD) ([2]; human, in vivo, 28 days): 1000 mg; tolerability of 400 mg bid ([2]; in vivo): considered as a tolerable dose; maximum clinically tolerable dose ([2]; qd dosing schedule): 1200 mg; MTD ([2]; qd dosing, highest dose that causes DLT in no more than one out of six patients in Cycle 1): not reached; complete or partial responses (CR or PR) (advanced solid tumors; all dose levels, qd and bid, 35 patients, RECIST v1.0): No complete or partial responses; Stable disease (SD) as the best response (advanced solid tumors; bid, 2 of 8 evaluable patients): 25.0%; duration of continued treatment with SD (advanced solid tumors; one patient with carcinoma of unknown primary, qd): 10 months; Stable disease (SD) as the best response (advanced solid tumors; qd, 14 of 27 evaluable patients): 51.9%

Source: article PMC6394493 (Cancer Chemotherapy and Pharmacology, 2018)
